The values that follow come from ChEMBL document CHEMBL4007451, “The 2014 Philip S. Portoghese Medicinal Chemistry Lectureship: The "Phenylalkylaminome" with a Focus on Selected Drugs of Abuse” (J Med Chem, 2017).

The species entered for assay [1] is Rattus norvegicus. Kind of assay: Induction of stimulus generalization in rat trained to discriminate MDMA assessed as appropriate responding level to training drug by two lever method. The format is functional.
The species entered for assay [2] is Rattus norvegicus. Kind of assay: Induction of stimulus generalization in rat trained to discriminate PMMA assessed as appropriate responding level to training drug by two lever method. The format is functional. To be noted: for ED50: Rattus norvegicus.
Assay [3] has as its target Sigma non-opioid intracellular receptor 1 (Cavia porcellus, UniProt Q60492). Briefly: Displacement of (+)-[3H]pentazocine from guinea pig brain membrane sigma1 receptor by scintillation spectrometric method.
Assay [4] deals with Sodium-dependent serotonin transporter (Rattus norvegicus, UniProt P31652). Kind of assay: Activity at SERT in rat synaptosomes assessed as release of [3H]HT after 5 mins by liquid scintillation counting method. Type of assay: subcellular.
For assay [5], the target named is Sodium-dependent dopamine transporter (Rattus norvegicus, UniProt P23977). Kind of assay: Activity at DAT in rat synaptosomes assessed as release of [3H]DA after 5 mins by liquid scintillation counting method. Type of assay: subcellular.
Assay [6] in a line: Activity at NET in rat synaptosomes assessed as release of [3H]NE after 30 mins by liquid scintillation counting method. Type of assay: subcellular.
For assay [7], the species on record is Rattus norvegicus. Kind of assay: Induction of stimulus generalization in Sprague-Dawley rat trained to discriminate DOM assessed as appropriate responding level to training drug by two lever method. Type of assay: functional.
For assay [8], the species on record is Rattus norvegicus. Kind of assay: Induction of stimulus generalization in Sprague-Dawley rat trained to discriminate AMPH assessed as appropriate responding level to training drug by two lever method. Type of assay: functional.
The species entered for assay [9] is Rattus norvegicus. Kind of assay: Induction of stimulus generalization in Sprague-Dawley rat trained to discriminate MDMA assessed as appropriate responding level to training drug by two lever method. The format is functional. Particulars: Rattus norvegicus, Sprague-Dawley.
The species named for assay [10] is Rattus norvegicus. Kind of assay: Induction of stimulus generalization in Sprague-Dawley rat trained to discriminate PMMA assessed as appropriate responding level to training drug by two lever method. Type of assay: functional.
Assay [11] is filed under the species Rattus norvegicus. Briefly: Induction of stimulus generalization in Sprague-Dawley rat trained to discriminate alpha-ET assessed as appropriate responding level to training drug by two lever method. The format is functional. To be noted: Rattus norvegicus, Sprague-Dawley.
For assay [12], the target named is 5-hydroxytryptamine receptor 2A (Rattus norvegicus, UniProt P14842). Kind of assay: Displacement of [125I](+/-)DOI from rat 5HT2A after 1 hr by beta scintillation counting method. For orientation: In a radioligand displacement assay an active substance lowers the binding of a labelled ligand.
Assay [13] is filed under the species Rattus norvegicus. Kind of assay: Induction of stimulus generalization in rat trained to discriminate (+)amphetamine assessed as appropriate responding level to training drug by two lever method. Type of assay: functional.
Assay [14] deals with T1, 5-hydroxytryptamine receptor 1A (Rattus norvegicus, UniProt P19327).
T1 sequence (P19327 whole entry): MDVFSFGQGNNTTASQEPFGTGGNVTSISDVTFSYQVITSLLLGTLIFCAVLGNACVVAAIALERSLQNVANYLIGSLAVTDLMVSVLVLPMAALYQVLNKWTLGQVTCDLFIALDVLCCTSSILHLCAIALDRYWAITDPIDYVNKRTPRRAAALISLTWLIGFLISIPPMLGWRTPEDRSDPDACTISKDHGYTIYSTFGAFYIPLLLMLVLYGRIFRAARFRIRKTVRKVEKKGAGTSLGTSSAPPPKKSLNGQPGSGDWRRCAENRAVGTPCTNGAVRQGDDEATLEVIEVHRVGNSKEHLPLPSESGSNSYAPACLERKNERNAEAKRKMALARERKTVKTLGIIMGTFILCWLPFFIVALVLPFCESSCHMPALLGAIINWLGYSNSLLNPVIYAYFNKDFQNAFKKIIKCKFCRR
Briefly: Displacement of [3H]-8-OH-DPAT from 5-HT1A receptor in Sprague-Dawley rat cortex membranes after 15 mins by liquid scintillation spectrometric method. Type of assay: cell membranes.

For assay [15], the species on record is Rattus norvegicus. Briefly: Induction of stimulus generalization in Sprague-Dawley rat trained to discriminate rac-cathinone assessed as appropriate responding level to training drug by two lever method. Type of assay: functional.
Assay [16] in a line: Displacement of [3H]DTG from sigma receptor (unknown origin). Set-up: species or system Homo sapiens.
The target in assay [17] is 5-hydroxytryptamine receptor 2A (Homo sapiens, UniProt P28223). Kind of assay: Displacement of [125I]DOI from recombinant human 5HT2A expressed in Syrian hamster AV12 cell membranes.
Assay [18] deals with Mus musculus. Kind of assay: Anxiolytic-like activity in iv dosed ICR mouse assessed as increase in marbles left uncovered measured after 30 mins by marble burying assay. To be noted: 0.5 h. Type of assay: functional.
For assay [19], the species on record is Rattus norvegicus. Briefly: Induction of stimulus generalization in rat trained to discriminate DOM assessed as appropriate responding level to training drug by two lever method. Type of assay: functional.
Setting [20] is: Rattus norvegicus, Sprague-Dawley.

SMILES strings stand for the structures.

Chain of Sigma non-opioid intracellular receptor 1 (Q60492 whole entry): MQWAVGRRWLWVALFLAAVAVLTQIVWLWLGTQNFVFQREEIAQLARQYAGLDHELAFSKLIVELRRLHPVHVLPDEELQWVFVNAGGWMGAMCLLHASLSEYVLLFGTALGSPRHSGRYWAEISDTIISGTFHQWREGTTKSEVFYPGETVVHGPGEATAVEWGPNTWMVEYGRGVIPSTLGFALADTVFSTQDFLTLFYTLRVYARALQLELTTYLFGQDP
Chain of Sodium-dependent dopamine transporter (P23977 whole entry): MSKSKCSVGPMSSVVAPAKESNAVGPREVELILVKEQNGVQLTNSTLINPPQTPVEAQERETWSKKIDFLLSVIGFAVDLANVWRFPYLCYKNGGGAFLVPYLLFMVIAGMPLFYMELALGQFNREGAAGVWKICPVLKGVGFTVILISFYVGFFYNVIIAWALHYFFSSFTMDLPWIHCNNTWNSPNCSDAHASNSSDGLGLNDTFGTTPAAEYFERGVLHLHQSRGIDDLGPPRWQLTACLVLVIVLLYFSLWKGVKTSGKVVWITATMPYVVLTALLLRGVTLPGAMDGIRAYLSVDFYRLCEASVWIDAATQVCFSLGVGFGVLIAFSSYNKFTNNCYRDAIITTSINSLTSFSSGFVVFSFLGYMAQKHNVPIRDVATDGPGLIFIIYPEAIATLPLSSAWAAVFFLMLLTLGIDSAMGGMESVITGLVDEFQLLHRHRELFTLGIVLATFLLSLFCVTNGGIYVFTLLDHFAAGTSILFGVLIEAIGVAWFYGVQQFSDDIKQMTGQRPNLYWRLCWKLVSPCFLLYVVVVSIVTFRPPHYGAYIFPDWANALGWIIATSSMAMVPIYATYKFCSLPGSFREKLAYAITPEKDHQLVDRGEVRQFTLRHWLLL
Chain of Sodium-dependent serotonin transporter (P31652 whole entry): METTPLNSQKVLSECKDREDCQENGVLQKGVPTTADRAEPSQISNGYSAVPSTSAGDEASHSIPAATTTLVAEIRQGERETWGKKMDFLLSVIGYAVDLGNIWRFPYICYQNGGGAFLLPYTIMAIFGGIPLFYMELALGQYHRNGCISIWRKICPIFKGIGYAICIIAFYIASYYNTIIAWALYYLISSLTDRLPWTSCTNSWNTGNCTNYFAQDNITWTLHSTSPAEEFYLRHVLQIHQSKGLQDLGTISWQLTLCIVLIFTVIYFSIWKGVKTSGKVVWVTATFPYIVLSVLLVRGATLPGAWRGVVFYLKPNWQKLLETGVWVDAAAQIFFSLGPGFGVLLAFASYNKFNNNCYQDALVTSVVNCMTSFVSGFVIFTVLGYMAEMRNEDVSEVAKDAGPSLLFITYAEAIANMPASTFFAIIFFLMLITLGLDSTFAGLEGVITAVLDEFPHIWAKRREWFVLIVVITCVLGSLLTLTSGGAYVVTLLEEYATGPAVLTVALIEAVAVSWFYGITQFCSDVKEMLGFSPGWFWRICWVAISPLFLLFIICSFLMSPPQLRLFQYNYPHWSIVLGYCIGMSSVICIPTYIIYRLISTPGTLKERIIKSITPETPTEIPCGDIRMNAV
Chain of 5-hydroxytryptamine receptor 2A (Homo sapiens, UniProt P28223) (P28223 whole entry): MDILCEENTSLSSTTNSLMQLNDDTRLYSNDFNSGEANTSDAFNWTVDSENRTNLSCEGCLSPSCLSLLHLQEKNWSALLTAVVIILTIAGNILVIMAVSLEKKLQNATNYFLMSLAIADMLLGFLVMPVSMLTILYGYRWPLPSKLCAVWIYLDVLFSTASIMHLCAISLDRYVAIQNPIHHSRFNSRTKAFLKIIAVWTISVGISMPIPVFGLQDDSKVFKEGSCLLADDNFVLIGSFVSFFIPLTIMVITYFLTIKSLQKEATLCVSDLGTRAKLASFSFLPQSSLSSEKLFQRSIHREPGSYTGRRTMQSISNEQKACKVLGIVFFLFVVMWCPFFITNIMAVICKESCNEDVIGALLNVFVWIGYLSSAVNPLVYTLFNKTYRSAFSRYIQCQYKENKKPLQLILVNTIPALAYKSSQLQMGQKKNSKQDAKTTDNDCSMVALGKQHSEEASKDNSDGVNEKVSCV
Chain of 5-hydroxytryptamine receptor 2A (Rattus norvegicus, UniProt P14842) (P14842 whole entry): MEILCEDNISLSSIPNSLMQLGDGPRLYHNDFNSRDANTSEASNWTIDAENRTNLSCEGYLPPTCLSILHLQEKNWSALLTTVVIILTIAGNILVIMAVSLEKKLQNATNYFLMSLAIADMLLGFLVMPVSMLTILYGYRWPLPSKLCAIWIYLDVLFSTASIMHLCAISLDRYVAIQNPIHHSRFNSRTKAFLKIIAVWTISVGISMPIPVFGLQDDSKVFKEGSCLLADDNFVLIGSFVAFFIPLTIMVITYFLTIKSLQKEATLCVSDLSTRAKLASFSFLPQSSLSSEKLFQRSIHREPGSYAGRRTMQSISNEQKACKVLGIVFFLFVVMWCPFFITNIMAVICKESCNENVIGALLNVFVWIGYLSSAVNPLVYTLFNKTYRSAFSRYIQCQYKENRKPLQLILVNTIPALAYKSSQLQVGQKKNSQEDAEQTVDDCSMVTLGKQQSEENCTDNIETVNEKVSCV

With `COc1ccc(C[C@@H](C)N)cc1`, the Activity in assay [1] was less than 20%. The ED50 (as a rule, the midpoint of the dose-response relation) in assay [2] was 0.4 mg/kg.

On to `c1ccc(CCCCCN2CCCC(c3ccccc3)C2)cc1` (stereo unspecified), for which, in assay [3], the affinity, expressed as Ki, was 0.14 nM.

`CCCCCCN(C)CCc1ccccc1`: the Ki (usually a dissociation constant, usually derived from enzyme kinetics or from competition with a known ligand) in [3] worked out at 48 nM.

Turning to `C[C@@H](Cc1ccccc1)NCCCCCc1ccccc1`, in assay [3], the affinity corresponds to a Ki of 0.9 nM.

With `COc1cccc(C[C@H](C)N)c1` [(S)-M-METHOXYAMPHETAMINE], the values for the Activity in assay [1] and in [2] were less than 20% and 20 - 80%, respectively.

On to `CC[C@@H](N)Cc1c[nH]c2ccccc12`, for which the EC50 – broadly, the concentration giving half of the maximal effect – in assay [4] was 68 nM; in [5], 900 nM; in [6], more than 10000 nM. Also, the Activity in assay [7] is on record as 33%. The ED50 in assay [8] (setting [20]) was 7.8 mg/kg; in assay [9] it was 1.3 mg/kg; in assay [10] it was 1.6 mg/kg; in assay [11] it was 1.6 mg/kg.

The compound `COc1cc([C@@H](OC)[C@H](C)N)c(OC)cc1Br` returned a Ki in assay [12] of 0.8 nM.

Take `CC(N)C(=O)c1ccccc1` (racemic) [DEALKYLATED DIETHYLPROPION]: in assay [13], the ED50 amounted to 0.72 mg/kg.

With `C[C@H](N)Cc1ccc2c(c1)OCO2`, the values for the EC50 in [4], in assay [5] and in assay [6] were 100 nM, 98 nM and 50 nM, respectively. Also, the ED50 in assay [2] worked out at 0.7 mg/kg.

The compound `CN(C)[C@@H]1CCc2cccc(O)c2C1` gave a Ki in assay [14] of 75 nM.

In the case of `C[C@@H](N)C(=O)c1ccccc1`, the values for the median effective dose (ED50) in assay [15] and in [13] were 0.72 mg/kg and 4.41 mg/kg, respectively.

On to `C=CCN1CC[C@]2(C)c3cc(O)ccc3C[C@H]1[C@H]2C`, for which the affinity in assay [16] corresponds to a Ki of 150 nM.

Take `CN[C@@H](C)Cc1ccc(OC)cc1`: the half-maximal effective concentration (EC50) in assay [4] worked out at 41 nM; in assay [5], 1000 nM; in [6], 147 nM. Further, in assay [2], the median effective dose (ED50) stood at 0.3 mg/kg.

`CC1CCN(CCCCCc2ccccc2)CC1`: the affinity in [3] corresponds to a Ki of 0.07 nM.

As for `C[C@@H](N)Cc1ccc2c(c1)OCO2`, the EC50 in [4] was determined as 310 nM; in [5] it was 900 nM; in assay [6], 290 nM. Further, in assay [2], the ED50 worked out at 1.5 mg/kg.

On to `CC(N)Cc1ccc2c(c1)OCO2` (racemic) [TENAMFETAMINE], for which the EC50 in [4] turned out to be 160 nM; in assay [5] it was 190 nM; in assay [6], 108 nM. Besides, the ED50 in [2] came to 0.5 mg/kg.

In the case of `CN[C@H](C)Cc1ccc(OC)cc1`, the half-maximal effective concentration (EC50) in [4] was 134 nM; in assay [5] it was 1600 nM; in assay [6], more than 14000 nM.

For `CCCNC(C)Cc1cc(OC)c(Br)cc1OC` (stereo unspecified), the Ki in assay [17] worked out at 88.5 nM.

With `C[C@H](N)[C@@H](O)c1ccccc1` [CATHINE], in assay [15], the ED50 amounted to 1.61 mg/kg.

`C[C@H](Cc1ccccc1)NCCCCCc1ccccc1` yielded an inhibitory constant (Ki) in [3] of 0.5 nM.

As to `CN1C(=O)CN=C(c2ccccc2)c2cc(Cl)ccc21` [DIAZEPAM], the 50% effective dose (ED50) in [18] is 0.26 mg/kg.

As to `CNC(C)Cc1ccc2c(c1)OCO2` (racemic) [MIDOMAFETAMINE], the 50% effective concentration (EC50) in assay [4] worked out at 72 nM; in [5] it was 278 nM; in assay [6] it was 110 nM. The median effective dose (ED50) in [2] came to 1.32 mg/kg.

On to `CCN(CC)[C@@H]1CCc2cccc(O)c2C1`, for which the inhibitory constant (Ki) in assay [14] was found to be 9.65 nM.

In assay [16], `C=CCN1CCC2(C)c3cc(O)ccc3CC1C2C` (racemic) yielded a Ki of 430 nM.

On to `CCC(N)Cc1c[nH]c2ccccc12` (racemic) [ETRYPTAMINE], for which the ED50 in [7] (setting [20]) was 6.6 mg/kg; in assay [9], 3.5 mg/kg; in [11] it was 1.3 mg/kg; in assay [19], 6.6 mg/kg. The Activity in [8] is 20 - 80%.
